Our source for the EC50 values is US9233961B2, “Compounds and compositions for the treatment of parasitic diseases” (Novartis AG, priority 2013, dated 2016).

Assay [1] deals with L. donovani HU3 strain in mouse peritoneal macrophages. The experiment in a line: Assay for proliferation of Leishmania parasites in mouse peritoneal macrophages. The class given is cell-based, Leishmania donovani. To be noted: Leishmania donovani, Peritoneal macrophage. The method in brief: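 BALB/c peritoneal macrophages infected 24 h with L. donovani HU3 amastigotes taken from spleens of mice infected 9–11 weeks, then treated with compound for 5 days at 37° C, 5% CO2. Parasite nuclei counted by SYBR Green imaging after fixation; EC50 from percentage inhibition.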

Assay [2] deals with Leishmania donovani axenic amastigote parasites. In words: Leishmania donovani axenic amastigote proliferation assay. It is filed as cell-based. To be noted: read-out: L. donovani amastigotes EC50. The method in brief: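 L. donovani axenic amastigotes (9600/well) in RPMI 1640 with 20% heat-inactivated FBS, folic acid, adenosine, glucose and 25 mM MES, pH 5.5, were incubated with compounds for 2 days at 37 °C, 5% CO2. Viability read by CellTiter-Glo luminescence; EC50 calculated.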

Where [3] appears, read: read-out: L. donavani Macrophage EC50.

The structures appear in SMILES notation. Where two headings read alike, the source gives them in different places.

Turning to `COC(=O)Nc1ccc(-c2cnc3nc(-c4cc(NC(=O)N5CCC5)ccc4Cl)[nH]c3c2)cc1` [Compound 344], the EC50 came out at 17 µM in assay [1] (setting [3]) and 7.6 µM in assay [2] (axenic amastigotes in vitro).
For the compound `CNc1ccc(-c2cnc3nc(-c4cc(NC(=O)c5ccc(CN(C)C)o5)ccc4Cl)[nH]c3c2)cc1` [Compound 347], the concentration for a half-maximal effect (EC50) in assay [1] (setting [3]) was 7.2 µM; in assay [2] (axenic amastigotes in vitro), greater than 25 µM.
Take `CN(C)C(=O)Nc1ccc(F)c(-c2nc3ncc(Cl)cc3[nH]2)c1` [Compound 354]: the figures for the EC50 in assay [1] (setting [3]) and in assay [2] (axenic amastigotes in vitro) were greater than 50 µM and greater than 25 µM, respectively.
Take `CCN(CC)C(=O)Nc1ccc(F)c(-c2nc3ncc(Cl)cc3[nH]2)c1` [Compound 355]: the 50% effective concentration (EC50) in assay [1] (setting [3]) is greater than 50 µM; in assay [2] (axenic amastigotes in vitro), greater than 25 µM.
The corresponding values for `O=C(Nc1ccc(C(F)(F)F)cc1)Nc1ccc(F)c(-c2nc3ncc(Cl)cc3[nH]2)c1` [Compound 356] are 19.6 µM and greater than 25 µM.
On to `CC(C)(C)C(=O)Nc1ccc(F)c(-c2nc3ncc(Cl)cc3[nH]2)c1` [Compound 358], for which the half-maximal effective concentration (EC50) in assay [1] (setting [3]) was greater than 50 µM; in assay [2] (axenic amastigotes in vitro), greater than 25 µM.
As to `O=C(CCN1CCCCC1)Nc1ccc(F)c(-c2nc3ncc(Cl)cc3[nH]2)c1` [Compound 359], the EC50 in assay [1] (setting [3]) was greater than 35.3 µM; in assay [2] (axenic amastigotes in vitro), greater than 25 µM.
With `CC(C)N(C(=O)Nc1ccc(F)c(-c2nc3ncc(Br)cc3[nH]2)c1)C(C)C` [Compound 362], the results for the EC50 in assay [1] (setting [3]) and in assay [2] (axenic amastigotes in vitro) were 7.5 µM and greater than 25 µM, respectively.
Turning to `O=C(Nc1ccc(F)c(-c2nc3ncc(Br)cc3[nH]2)c1)N1CCOCC1` [Compound 365], the figures for the EC50 in assay [1] (setting [3]) and in assay [2] (axenic amastigotes in vitro) were greater than 50 µM and 19.8 µM, respectively.
Take `O=C(Nc1ccc(F)c(-c2nc3ncc(Br)cc3[nH]2)c1)c1cc[nH]n1` [Compound 368]: the EC50 in assay [1] (setting [3]) was greater than 50 µM; in assay [2] (axenic amastigotes in vitro) it was 18.9 µM.
Take `O=C(Nc1ccc(Cl)c(-c2nc3ncc(Br)cc3[nH]2)c1)c1cocn1` [Compound 369]: the EC50 is greater than 50 µM in assay [1] (setting [3]) and greater than 25 µM in assay [2] (axenic amastigotes in vitro).
Regarding `O=C(Nc1ccc(Cl)c(-c2nc3ncc(Br)cc3[nH]2)c1)c1ccc(F)o1` [Compound 373], the EC50 in assay [1] (setting [3]) turned out to be 2.15 µM; in assay [2] (axenic amastigotes in vitro) it was 0.55 µM.
Consider `CN(C)CCn1c(-c2cc(NC(=O)N3CCCC3)ccc2Cl)nc2ncc(Br)cc21` [Compound 387], for which the concentration giving a half-maximal response (EC50) was greater than 50 µM in assay [1] (setting [3]) and greater than 25 µM in assay [2] (axenic amastigotes in vitro).
As to `O=C(Nc1ccc(Cl)c(-c2nc3ncc(Br)cc3n2CCN2CCOCC2)c1)N1CCCC1` [Compound 388], the figures for the EC50 in assay [1] (setting [3]) and in assay [2] (axenic amastigotes in vitro) were greater than 50 µM and greater than 25 µM, respectively.
The corresponding values for `CN(C)c1ccc(-c2cnc3nc(-c4cc(NC(=O)Nc5ccc(C(F)(F)F)cc5)ccc4F)oc3c2)cc1` [Compound 390] are 18.2 µM and 12.6 µM.
For `O=C(Nc1ccc(C(F)(F)F)cc1)Nc1ccc(F)c(-c2nc3ncc(-c4ccc(NCCN5CCOCC5)nc4)cc3o2)c1` [Compound 391], the EC50 in assay [1] (setting [3]) was greater than 12.3 µM; in assay [2] (axenic amastigotes in vitro), greater than 25 µM.
Turning to `O=C(Nc1ccc(C(F)(F)F)cc1)Nc1ccc(F)c(-c2nc3ncc(-c4ccc(N5CCOCC5)cc4)cc3o2)c1` [Compound 392], the EC50 in assay [1] (setting [3]) is 8.4 µM; in assay [2] (axenic amastigotes in vitro) it was greater than 25 µM.
The corresponding values for `CNc1ccc(-c2cnc3nc(-c4cc(NC(=O)Nc5ccc(C(F)(F)F)cc5)ccc4F)oc3c2)cc1` [Compound 393] are greater than 50 µM and greater than 12.5 µM.
As for `Cc1n[nH]cc1-c1cnc2nc(-c3cc(NC(=O)Nc4ccc(C(F)(F)F)cc4)ccc3F)oc2c1` [Compound 394], the half-maximal effective concentration (EC50) in assay [1] (setting [3]) is 4.8 µM; in assay [2] (axenic amastigotes in vitro), 11.7 µM.
With `O=C(Nc1ccc(C(F)(F)F)cc1)Nc1ccc(F)c(-c2nc3ncc(-c4ccc(CN5CCOCC5)cc4)cc3o2)c1` [Compound 395], the EC50 worked out at 6.8 µM in assay [1] (setting [3]) and 12 µM in assay [2] (axenic amastigotes in vitro).
For the compound `CC(C)OC(=O)Nc1ccc(-c2cnc3nc(-c4cc(NC(=O)Nc5ccc(C(F)(F)F)cc5)ccc4F)oc3c2)cc1` [Compound 396], the concentration giving a half-maximal response (EC50) in assay [1] (setting [3]) was greater than 50 µM; in assay [2] (axenic amastigotes in vitro), 16.1 µM.
Regarding `O=C(Nc1ccc(C(F)(F)F)cc1)Nc1ccc(F)c(-c2nc3ncc(N4CCCCC4)cc3o2)c1` [Compound 397], the EC50 in assay [1] (setting [3]) is greater than 30 µM; in assay [2] (axenic amastigotes in vitro), greater than 25 µM.
Turning to `O=C(Nc1ccc(C(F)(F)F)cc1)Nc1ccc(F)c(-c2nc3ncc(-c4ccc(N5CCCCC5)cc4)cc3o2)c1` [Compound 399], the EC50 in assay [1] (setting [3]) worked out at 5.9 µM; in assay [2] (axenic amastigotes in vitro) it was 15.8 µM.
Turning to `Nc1ccc(-c2cnc3nc(-c4cc(NC(=O)Nc5ccc(C(F)(F)F)cc5)ccc4F)oc3c2)cn1` [Compound 400], the EC50 in assay [1] (setting [3]) worked out at 4 µM; in assay [2] (axenic amastigotes in vitro), 1.62 µM.
For `CC(=O)Nc1ccc(-c2cnc3nc(-c4cc(NC(=O)Nc5ccc(C(F)(F)F)cc5)ccc4F)oc3c2)cc1` [Compound 401], in that order: 3.12 µM and 4.7 µM.
`COC(=O)Nc1ccc(-c2cnc3nc(-c4cc(NC(=O)Nc5ccc(C(F)(F)F)cc5)ccc4F)oc3c2)cc1` [Compound 402]: the EC50 is 10 µM in assay [1] (setting [3]) and greater than 24 µM in assay [2] (axenic amastigotes in vitro).
As for `CN(C)c1ccc(-c2cnc3nc(-c4cc(NC(=O)Nc5ccc(C(F)(F)F)cc5)ccc4F)oc3c2)cn1` [Compound 403], the concentration for a half-maximal effect (EC50) was greater than 50 µM in assay [1] (setting [3]) and 17.4 µM in assay [2] (axenic amastigotes in vitro).
The corresponding values for `CCc1noc(C(=O)Nc2ccc(F)c(-c3nc4ncc(Br)cc4o3)c2)n1` [Compound 405] are greater than 50 µM and greater than 25 µM.
For `CC(C)c1nnc(C(=O)Nc2ccc(F)c(-c3nc4ncc(Br)cc4o3)c2)o1` [Compound 406], the EC50 in assay [1] (setting [3]) was greater than 50 µM; in assay [2] (axenic amastigotes in vitro), greater than 25 µM.
`CC(C)(C)c1nnc(C(=O)Nc2ccc(F)c(-c3nc4ncc(Br)cc4o3)c2)o1` [Compound 407]: the values for the EC50 in assay [1] (setting [3]) and in assay [2] (axenic amastigotes in vitro) were greater than 4.2 µM and greater than 25 µM, respectively.
Regarding `O=C(Nc1ccc(F)c(-c2nc3ncc(Br)cc3o2)c1)c1cnco1` [Compound 408], the figures for the EC50 in assay [1] (setting [3]) and in assay [2] (axenic amastigotes in vitro) were greater than 50 µM and 3.8 µM, respectively.
For the compound `Cc1ncoc1C(=O)Nc1ccc(F)c(-c2nc3ncc(Br)cc3o2)c1` [Compound 409], the results for the EC50 in assay [1] (setting [3]) and in assay [2] (axenic amastigotes in vitro) were greater than 50 µM and 7.5 µM, respectively.
Consider `O=C(Nc1ccc(F)c(-c2nc3ncc(Br)cc3o2)c1)c1cocn1` [Compound 410], for which the values for the EC50 in assay [1] (setting [3]) and in assay [2] (axenic amastigotes in vitro) were greater than 50 µM and greater than 25 µM, respectively.
Take `COC(=O)Nc1ccc(-c2cnc3nc(-c4cc(NC(=O)c5ccco5)ccc4F)oc3c2)cc1` [Compound 414]: the EC50 was found to be 1.17 µM in assay [1] (read-out: L. donavani Macrophage EC50 (μM)) and 0.2 µM in assay [2] (axenic amastigotes in vitro).
For the compound `Cc1cnc2nc(-c3cc(NC(=O)c4ccco4)ccc3Cl)[nH]c2c1` [Example 1, N-(4-chloro-3-{6-methyl-1H-imidazo[4,5-b]pyridin-2-yl}phenyl)furan-2-carboxamide], the results for the EC50 in assay [1] (setting [3]) and in assay [2] (axenic amastigotes in vitro) were 9 µM and 2.2 µM, respectively.
Turning to `O=C(Nc1ccc(Cl)c(-c2nc3ncc(-c4ccc(CCN5CCOCC5)cc4)cc3[nH]2)c1)c1ccco1` [Example 6, N-[4-chloro-3-(6-{4-[2-(morpholin-4-yl)ethyl]phenyl}-1H-imidazo[4,5-b]pyridin-2-yl)phenyl]furan-2-carboxamide], the EC50 was 0.65 µM in assay [1] (setting [3]) and 1.96 µM in assay [2] (axenic amastigotes in vitro).
Take `C=Cc1cnc2nc(-c3cc(NC(=O)c4ccco4)ccc3Cl)[nH]c2c1` [Example 74, N-(4-chloro-3-{6-ethenyl-1H-imidazo[4,5-b]pyridin-2-yl}phenyl)furan-2-carboxamide]: the EC50 was 3.09 µM in assay [1] (setting [3]) and 0.45 µM in assay [2] (axenic amastigotes in vitro).
For `CCCc1cnc2nc(-c3cc(NC(=O)c4ccco4)ccc3Cl)[nH]c2c1` [Example 75, N-(4-chloro-3-{6-propyl-1H-imidazo[4,5-b]pyridin-2-yl}phenyl)furan-2-carboxamide], the figures for the concentration for a half-maximal effect (EC50) in assay [1] (setting [3]) and in assay [2] (axenic amastigotes in vitro) were 25.6 µM and 9.3 µM, respectively.
The corresponding values for `O=C(Nc1ccc(Cl)c(-c2nc3ncc(C(F)(F)F)cc3[nH]2)c1)c1ccco1` [Example 276, N-{4-Chloro-3-[6-(trifluoromethyl)-1H-imidazo[4,5-b]pyridin-2-yl]phenyl}furan-2-carboxamide] are 6 µM and 1.56 µM.
For `CC(C)OC(=O)Nc1ccc(Cl)c(-c2nc3ncc(C#N)cc3[nH]2)c1` [Example 287, Propan-2-yl N-(4-chloro-3-{6-cyano-1H-imidazo[4,5-b]pyridin-2-yl}phenyl)carbamate], the 50% effective concentration (EC50) is roughly 0.08 µM in assay [1] (120 h, L. donovani in mouse peritoneal macrophages, 5 days culture, SybrGreen parasite nuclei count, read-out: EC50); 0.078 µM in assay [1] (setting [3]); 1.44 µM in assay [2] (axenic amastigotes in vitro).
For the compound `O=C(Nc1ccc(F)c(-c2nc3ncc(-c4ccccc4)cc3[nH]2)c1)N1CCCC1` [Example 309, N-(4-fluoro-3-{6-phenyl-1H-imidazo[4,5-b]pyridin-2-yl}phenyl)pyrrolidine-1-carboxamide], the figures for the half-maximal effective concentration (EC50) in assay [1] (setting [3]) and in assay [2] (axenic amastigotes in vitro) were 4.5 µM and 1.97 µM, respectively.
For `CC(C)OC(=O)Nc1ccc(Cl)c(-c2nc3ncc(-c4ccccc4)cc3[nH]2)c1` [Example 333, Propan-2-yl N-(4-chloro-3-{6-phenyl-1H-imidazo[4,5-b]pyridin-2-yl}phenyl)carbamate], in that order: 0.048 µM and 0.66 µM.
Take `COC(=O)Nc1ccc(-c2cnc3nc(-c4cc(NC(=O)N5CCC(F)(F)C5)ccc4Cl)[nH]c3c2)cc1` [Example 343, Methyl N-[4-(2-{2-chloro-5-[(3,3-difluoropyrrolidin-1-yl)carbonylamino]phenyl}-1H-imidazo [4,5-b]pyridin-6-yl)phenyl]carbamate]: the concentration giving a half-maximal response (EC50) turned out to be 0.51 µM in assay [1] (setting [3]) and 0.245 µM in assay [2].
Consider `O=C(Nc1ccc(F)c(-c2nc3ncc(Cl)cc3[nH]2)c1)c1ccco1` [Example 357, N-(3-{6-chloro-1H-imidazo[4,5-b]pyridin-2-yl}-4-fluorophenyl)furan-2-carboxamide], for which the EC50 in assay [1] (setting [3]) was found to be 2.51 µM; in assay [2] (axenic amastigotes in vitro), 0.6 µM.

In general, EC50 refers to the concentration at which the effect is half-maximal.
